Experimental data published in the RepoRT retention time repository (doi:10.1016/j.jchromb.2020.122105).

What was measured:
Conditions in all cases: stereoisomer not certain
[1] = RP, Waters ACQUITY UPLC BEH C18, 100 × 2.1 mm, 1.7 µm, 0.1 mL/min, estimated dead time 2.2 min; A: water + 0.045% formic acid + 0.11% ammonium hydroxide, pH 7; B: methanol; gradient (min/%B) 0/5 5/5 25/95 25.1/100 35/100 35.1/5 45/5
[2] = RP, Waters CORTECS T3, 100 × 2.1 mm, 2.7 µm, 0.2 mL/min, estimated dead time 1.1 min; A: water + 0.1% formic acid, pH 3; B: methanol + 0.1% formic acid, pH 3; gradient (min/%B) 0/0 1/0 6/5 30/100 35/100 35.1/0 40/0
[3] = RP, Waters CORTECS T3, 100 × 2.1 mm, 2.7 µm, 0.3 mL/min, estimated dead time 0.73 min; A: water + 0.1% formic acid, pH 3; B: methanol + 0.1% formic acid, pH 3; gradient (min/%B) 0/5 5/5 25/95 25.1/100 35/100 35.1/5 45/5
[4] = RP, Waters CORTECS T3, 100 × 2.1 mm, 2.7 µm, 0.3 mL/min, estimated dead time 0.73 min; A: water + 0.1% formic acid, pH 3; B: methanol + 0.1% formic acid, pH 3; gradient (min/%B) 0/0 5/0 25/100 30/100 30.1/0 35/0
[5] = RP, Waters CORTECS T3, 100 × 2.1 mm, 2.7 µm, 0.1 mL/min, estimated dead time 2.2 min; A: water + 0.1% formic acid, pH 3; B: methanol + 0.1% formic acid, pH 3; gradient (min/%B) 0/0 1/0 6/5 30/100 35/100 35.1/0 40/0
[6] = RP, Waters ACQUITY UPLC BEH C18, 100 × 2.1 mm, 1.7 µm, 0.1 mL/min, estimated dead time 2.2 min; A: water + 0.1% formic acid, pH 3; B: methanol + 0.1% formic acid, pH 3; gradient (min/%B) 0/5 5/5 25/95 25.1/100 35/100 35.1/5 45/5
[7] = RP, Waters CORTECS T3, 100 × 2.1 mm, 2.7 µm, 0.15 mL/min, estimated dead time 1.5 min; A: water + 0.1% formic acid, pH 3; B: methanol + 0.1% formic acid, pH 3; gradient (min/%B) 0/0 1/0 6/5 30/100 35/100 35.1/0 40/0
[8] = RP, Waters ACQUITY UPLC BEH C18, 100 × 2.1 mm, 1.7 µm, 0.1 mL/min, estimated dead time 2.2 min; A: water + 0.1% formic acid, pH 3; B: methanol + 0.1% formic acid, pH 3; gradient (min/%B) 0/5 5/5 25/95 25.1/100 35/100 35.1/5 45/5; remark: listed apart in the source
[9] = RP, Waters ACQUITY UPLC BEH C18, 100 × 2.1 mm, 1.7 µm, 0.1 mL/min, estimated dead time 2.2 min; A: water + 0.1% formic acid, pH 3; B: methanol + 0.1% formic acid, pH 3; gradient (min/%B) 0/5 5/5 25/100 30/100 30.1/5 35/5
[10] = RP, Waters CORTECS T3, 100 × 2.1 mm, 2.7 µm, 0.1 mL/min, estimated dead time 2.2 min; A: water + 0.1% formic acid, pH 3; B: methanol + 0.1% formic acid, pH 3; gradient (min/%B) 0/5 5/5 25/95 25.1/100 35/100 35.1/5 45/5
[11] = RP, Waters CORTECS T3, 100 × 2.1 mm, 2.7 µm, 0.25 mL/min, estimated dead time 0.88 min; A: water + 0.1% formic acid, pH 3; B: methanol + 0.1% formic acid, pH 3; gradient (min/%B) 0/0 1/0 6/5 30/100 35/100 35.1/0 40/0
[12] = RP, Waters CORTECS T3, 100 × 2.1 mm, 2.7 µm, 0.3 mL/min, estimated dead time 0.73 min; A: water + 0.1% formic acid, pH 3; B: methanol + 0.1% formic acid, pH 3; gradient (min/%B) 0/5 5/5 25/100 30/100 30.1/5 35/5
[13] = RP, Waters CORTECS T3, 100 × 2.1 mm, 2.7 µm, 0.2 mL/min, estimated dead time 1.1 min; A: water + 0.045% formic acid + 0.11% ammonium hydroxide, pH 7; B: methanol; gradient (min/%B) 0/5 5/5 25/95 25.1/100 35/100 35.1/5 45/5
[14] = RP, Thermo Scientific Hypercarb, 150 × 2.1 mm, 5 µm, 0.1 mL/min, estimated dead time 3.3 min; A: water + 0.1% formic acid, pH 3; B: methanol + 0.1% formic acid, pH 3; gradient (min/%B) 0/5 5/5 20/100 35/100 35.1/5 45/5
[15] = RP, Waters ACQUITY UPLC BEH C18, 100 × 2.1 mm, 1.7 µm, 0.2 mL/min, estimated dead time 1.1 min; A: water + 0.025% formic acid + 20 mM ammonium acetate + 0.055% ammonium hydroxide, pH 7; B: methanol; gradient (min/%B) 0/5 5/5 25/100 30/100 30.1/5 35/5
[16] = RP, Waters CORTECS T3, 100 × 2.1 mm, 2.7 µm, 0.3 mL/min, estimated dead time 0.73 min; A: water + 0.1% formic acid, pH 3; B: methanol + 0.1% formic acid, pH 3; gradient (min/%B) 0/0 1/0 6/5 30/100 35/100 35.1/0 40/0
[17] = HILIC, Waters XBridge BEH Amide, 100 × 2.1 mm, 2.5 µm, 0.5 mL/min, estimated dead time 0.44 min; A: water + 0.1% acetic acid + 10 mM ammonium acetate, pH 4; B: 5% water + 95% acetonitrile + 0.1% acetic acid + 10 mM ammonium acetate, pH 4; gradient (min/%B) 0/95 5/95 20/57 25/57 30/95 40/95

Structure (SMILES) | LC retention time [1] [min] | LC retention time [2] [min] | LC retention time [3] [min] | LC retention time [4] [min] | LC retention time [5] [min] | LC retention time [6] [min] | LC retention time [7] [min] | LC retention time [8] [min] | LC retention time [9] [min] | LC retention time [10] [min] | LC retention time [11] [min] | LC retention time [12] [min] | LC retention time [13] [min] | LC retention time [14] [min] | LC retention time [15] [min] | LC retention time [16] [min] | LC retention time [17] [min]
Cn1c(=O)c2c(ncn2C)n(C)c1=O [CAFFEINE] | 14.6 | 13 | 10.2 | 11.1 | 11.5 | 14.6 | 14.2 | 14.6 | 14.4 | 14.7 | 12.2 | 10.1 | 11.6 |  | 11.3 | 11.7 | 
CC12CCC(=O)C=C1CCC1C2C(O)CC2(C)C1CCC2(O)C(=O)CO (configuration not stated) [CORTISOL] | 21.6 | 20.8 | 17.2 | 17.3 | 18.5 | 21.6 | 22 | 21.6 | 21.1 | 21.6 | 20 | 16.7 | 18.5 |  | 18.1 | 19.4 | 
CC(=O)OCC(=O)C1CCC2C3CCC4=CC(=O)CCC4(C)C3CCC12C (configuration not stated) [DEOXYCORTICOSTERONE ACETATE] | 25.3 | 25.2 | 21.1 | 20.8 | 22.4 | 25.3 | 26.3 | 25.3 | 24.5 | 25.4 | 24.4 | 20.4 | 22.4 |  | 21.6 | 23.8 | 
Cc1cc2nc[nH]c2cc1C [DIMETHYLBENZIMIDAZOLE] | 20.5 | 13.4 | 10.5 | 11.4 | 11.8 | 15.6 | 14.7 | 15.7 | 15.2 | 15.1 | 12.6 | 10.4 | 16.5 |  | 16.6 | 12 | 0.65
CCCCCCCCCCCC(=O)OC(CC(=O)[O-])C[N+](C)(C)C (configuration not stated) [LAUROYLCARNITINE] | 26.6 | 24.7 | 20.6 | 20.3 | 21.8 | 25.7 | 25.7 | 25.8 | 24.5 | 24.5 | 23.9 | 20 | 22.8 | 28.5 | 22.8 | 23.4 | 

The remaining lines, values ahead:

LC retention time [1] [min] | LC retention time [2] [min] | LC retention time [3] [min] | LC retention time [4] [min] | LC retention time [5] [min] | LC retention time [6] [min] | LC retention time [7] [min] | LC retention time [8] [min] | LC retention time [9] [min] | LC retention time [10] [min] | LC retention time [11] [min] | LC retention time [12] [min] | LC retention time [13] [min] | LC retention time [14] [min] | LC retention time [15] [min] | LC retention time [16] [min] | LC retention time [17] [min] | Structure (SMILES)
19.2 | 17 | 13.6 | 14.2 | 15.2 | 19.2 | 18.4 | 19.2 | 18.9 | 18.8 | 16.1 | 13.3 | 15.2 | 32.3 |  |  |  | CC1C(=O)Nc2ccccc21 (configuration not stated) [3-METHYL-2-OXINDOLE]
23.4 | 23.5 | 19.9 |  | 21 | 23.5 | 24.7 | 23.5 | 22.8 | 23.8 | 22.9 |  | 20.9 |  | 19.9 | 22.6 |  | C=CC1=C(C)C(C=c2[nH]c(=Cc3[nH]c(C=C4NC(=O)C(C)=C4C=C)c(C)c3CCC(=O)O)c(CCC(=O)O)c2C)=NC1=O [BILIVERDIN]
21 | 20.2 | 16.7 | 16.9 | 18 | 21 | 21.4 | 21 | 20.5 | 21 | 19.5 | 16.3 | 18 |  | 17.6 | 18.9 |  | CC12CCC(=O)C=C1CCC1C2C(=O)CC2(C)C1CCC2(O)C(=O)CO (configuration not stated) [CORTISONE]
18.5 | 16.2 | 12.9 | 13.6 | 14.5 | 18.5 | 17.7 | 18.5 | 18.2 | 18 | 15.3 | 12.7 | 14.5 |  | 14.7 | 14.6 |  | OCCc1c[nH]c2ccccc12 [INDOLE-3-ETHANOL]
29.1 | 27.4 | 23 | 22.4 | 24.1 | 27.9 | 28.2 | 28.1 | 26.4 | 26.6 | 26.6 | 22.2 |  |  |  | 26.1 |  | CCCCCCCCCCCCCCCC(O)C(N)CO (configuration not stated) [SPHINGANINE]
15.3 | 12.9 | 9.92 | 11 | 11.4 | 15.2 | 14.4 | 15.2 | 15.1 | 15.1 | 12.1 | 9.81 | 11.7 |  | 11.7 | 11.4 |  | CSc1ncnc2nc[nH]c12 [THIOPURINE S-METHYLETHER]
